What was measured:
[1] = molecular target: Sodium-dependent serotonin transporter (Rattus norvegicus, UniProt P31652); experiment: Inhibition of [3H]serotonin reuptake in rat brain synaptosomes SERT after 15 mins by TopCount scintillation counting method; assay type: subcellular
[2] = molecular target: T1, 5-hydroxytryptamine receptor 1A (Homo sapiens, UniProt P08908); experiment: Displacement of [3H]8-OH-DPAT from recombinant human 5-HT1A receptor expressed in HEK293 cell membranes after 60 mins by TopCount scintillation counting method
T1 sequence (P08908 whole entry): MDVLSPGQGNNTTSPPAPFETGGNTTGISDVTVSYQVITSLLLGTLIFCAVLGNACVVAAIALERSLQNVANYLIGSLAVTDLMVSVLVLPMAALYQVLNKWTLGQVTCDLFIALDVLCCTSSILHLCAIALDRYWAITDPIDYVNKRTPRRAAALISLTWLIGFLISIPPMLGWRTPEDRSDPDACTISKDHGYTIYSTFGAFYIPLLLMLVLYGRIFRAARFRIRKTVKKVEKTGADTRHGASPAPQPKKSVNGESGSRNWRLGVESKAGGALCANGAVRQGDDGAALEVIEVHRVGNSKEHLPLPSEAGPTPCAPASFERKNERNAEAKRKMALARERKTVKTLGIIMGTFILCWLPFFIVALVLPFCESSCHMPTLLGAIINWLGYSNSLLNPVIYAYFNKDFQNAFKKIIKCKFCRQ

[3] = molecular target: T2, 5-hydroxytryptamine receptor 7 (Homo sapiens, UniProt P34969); experiment: Displacement of [3H]LSD from recombinant human 5-HT7 receptor expressed in CHO cell membranes at 10 uM after 120 mins by TopCount scintillation counting method relative to control
T2 sequence (P34969 whole entry): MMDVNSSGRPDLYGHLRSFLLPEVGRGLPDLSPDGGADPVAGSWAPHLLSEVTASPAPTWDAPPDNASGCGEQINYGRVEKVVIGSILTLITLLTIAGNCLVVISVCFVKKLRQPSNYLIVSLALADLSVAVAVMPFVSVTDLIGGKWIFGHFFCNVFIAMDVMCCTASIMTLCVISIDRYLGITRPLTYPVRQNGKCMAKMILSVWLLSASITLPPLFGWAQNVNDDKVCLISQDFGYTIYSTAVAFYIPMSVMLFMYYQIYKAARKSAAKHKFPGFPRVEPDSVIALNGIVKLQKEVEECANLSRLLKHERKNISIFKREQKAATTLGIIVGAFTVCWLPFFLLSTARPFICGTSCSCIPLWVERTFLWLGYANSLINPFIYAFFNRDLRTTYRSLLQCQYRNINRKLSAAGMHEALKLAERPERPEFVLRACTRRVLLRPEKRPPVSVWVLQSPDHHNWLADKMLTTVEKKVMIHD

[4] = molecular target: T2, 5-hydroxytryptamine receptor 7; experiment: Displacement of [3H]LSD from recombinant human 5-HT7 receptor expressed in CHO cell membranes after 120 mins by TopCount scintillation counting method
Mus musculus [5] = experiment: Antidepressant-like activity in mouse assessed as reduction in immobility time at 40 mg/kg/day, po once daily for 7 days measured for last 4 mins of 6 mins test at 1 hr post last dose by forced swim test relative to control; assay type: functional; parameters: scale not given: the % may be the effect or the level left
Mus musculus [6] = experiment: Antidepressant-like activity in mouse assessed as reduction in immobility time at 10 mg/kg/day, po once daily for 7 days measured for last 4 mins of 6 mins test at 1 hr post last dose by forced swim test relative to control; assay type: functional; parameters: scale not given: the % may be the effect or the level left
[7] = molecular target: Voltage-gated inwardly rectifying potassium channel KCNH2 (Homo sapiens, UniProt Q12809); experiment: Inhibition of human ERG expressed in CHO-K1 cells assessed as reduction in tail current amplitude at -80 mV holding potential after 2 mins by path clamp assay; assay type: cell-based
Voltage-gated inwardly rectifying potassium channel KCNH2, sequence (Q12809 whole entry): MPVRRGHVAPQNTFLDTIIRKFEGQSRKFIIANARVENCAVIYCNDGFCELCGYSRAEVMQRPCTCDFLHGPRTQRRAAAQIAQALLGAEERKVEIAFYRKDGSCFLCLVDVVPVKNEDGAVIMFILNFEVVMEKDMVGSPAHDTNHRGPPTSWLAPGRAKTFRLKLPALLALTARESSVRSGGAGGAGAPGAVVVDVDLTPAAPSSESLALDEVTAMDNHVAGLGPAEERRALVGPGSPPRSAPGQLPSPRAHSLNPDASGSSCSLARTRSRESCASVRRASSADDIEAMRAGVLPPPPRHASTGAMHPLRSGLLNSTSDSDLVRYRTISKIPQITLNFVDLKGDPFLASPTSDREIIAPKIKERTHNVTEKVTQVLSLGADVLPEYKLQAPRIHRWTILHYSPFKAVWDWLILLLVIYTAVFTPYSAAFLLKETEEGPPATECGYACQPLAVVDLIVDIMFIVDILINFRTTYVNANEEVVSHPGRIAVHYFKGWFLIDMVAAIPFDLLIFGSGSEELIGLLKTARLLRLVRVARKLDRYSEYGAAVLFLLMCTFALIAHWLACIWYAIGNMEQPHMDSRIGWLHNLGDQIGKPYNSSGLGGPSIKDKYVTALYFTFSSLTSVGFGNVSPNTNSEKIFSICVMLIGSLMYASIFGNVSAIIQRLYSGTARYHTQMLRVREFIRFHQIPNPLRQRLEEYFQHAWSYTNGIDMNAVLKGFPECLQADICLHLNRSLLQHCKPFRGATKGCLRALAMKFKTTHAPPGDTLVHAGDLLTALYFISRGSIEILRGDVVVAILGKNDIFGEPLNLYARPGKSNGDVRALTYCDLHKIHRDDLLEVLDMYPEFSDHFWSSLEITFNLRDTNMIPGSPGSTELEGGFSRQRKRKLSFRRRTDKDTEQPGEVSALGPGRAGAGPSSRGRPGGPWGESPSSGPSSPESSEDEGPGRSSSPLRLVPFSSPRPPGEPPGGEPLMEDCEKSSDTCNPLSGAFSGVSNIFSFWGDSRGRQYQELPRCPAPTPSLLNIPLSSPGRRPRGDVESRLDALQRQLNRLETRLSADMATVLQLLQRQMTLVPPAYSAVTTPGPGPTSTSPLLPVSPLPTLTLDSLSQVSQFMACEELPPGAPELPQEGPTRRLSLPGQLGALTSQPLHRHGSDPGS

Mus musculus [8] = experiment: Antidepressant-like activity in mouse assessed as reduction in immobility time at 40 mg/kg/day, po administered once daily for 7 days measured for 5 mins at 1 hr post last dose by tail suspension test relative to control; assay type: functional; parameters: scale not given: the % may be the effect or the level left
Mus musculus [9] = experiment: Antidepressant-like activity in mouse assessed as reduction in immobility time at 20 mg/kg/day, po administered once daily for 7 days measured for 5 mins at 1 hr post last dose by tail suspension test relative to control; assay type: functional; parameters: scale not given: the % may be the effect or the level left
Mus musculus [10] = experiment: Antidepressant-like activity in mouse assessed as reduction in immobility time at 10 mg/kg/day, po administered once daily for 7 days measured for 5 mins at 1 hr post last dose by tail suspension test relative to control; assay type: functional; parameters: scale not given: the % may be the effect or the level left
Homo sapiens = species on record: Homo sapiens; experiment: Selectivity ratio of Ki for alpha1-adrenoceptor (unknown origin) in cerebral cortex membranes to Ki for recombinant human 5-HT1A receptor expressed in HEK293 cell membranes; assay type: cell-based
[11] = AUC (0 to t) in Sprague-Dawley rat at 2 mg/kg, po administered as single dose by LC-MS/MS analysis; assay type: ADME, organism-based; settings: in vivo
[12] = AUC (0 to infinity) in Sprague-Dawley rat at 2 mg/kg, po administered as single dose by LC-MS/MS analysis; assay type: ADME, organism-based; parameters: dose 2 mg/kg, time infinity, route oral; settings: in vivo
[13] = Apparent volume of distribution during terminal phase in Sprague-Dawley rat at 2 mg/kg, po administered as single dose by LC-MS/MS analysis; assay type: ADME, organism-based; settings: in vivo, read-out: Vz/F
[14] = Apparent terminal half life in Sprague-Dawley rat at 2 mg/kg, po administered as single dose by LC-MS/MS analysis; assay type: ADME, organism-based; settings: in vivo, read-out: betat1/2(app) (converted)
[15] = Tmax in Sprague-Dawley rat at 2 mg/kg, po administered as single dose by LC-MS/MS analysis; assay type: ADME, organism-based; settings: in vivo
[16] = Oral bioavailability in Sprague-Dawley rat at 2 mg/kg administered as single dose by LC-MS/MS analysis; assay type: ADME, organism-based; settings: in vivo
[17] = AUC (0 to t) in Sprague-Dawley rat at 0.5 mg/kg, iv administered as single dose by LC-MS/MS analysis; assay type: ADME, organism-based; settings: in vivo
[18] = AUC (0 to infinity) in Sprague-Dawley rat at 0.5 mg/kg, iv administered as single dose by LC-MS/MS analysis; assay type: ADME, organism-based; parameters: dose 0.5 mg/kg, time infinity, route intravenous; settings: in vivo
[19] = MRT (0 to t) in Sprague-Dawley rat at 0.5 mg/kg, iv administered as single dose by LC-MS/MS analysis; assay type: ADME, organism-based; settings: in vivo
Rattus norvegicus [20] = experiment: Apparent volume of distribution during terminal phase in Sprague-Dawley rat at 0.5 mg/kg, iv administered as single dose by LC-MS/MS analysis; assay type: ADME, organism-based; settings: in vivo
Rattus norvegicus [21] = experiment: Apparent clearance during terminal phase in Sprague-Dawley rat at 0.5 mg/kg, iv administered as single dose by LC-MS/MS analysis; assay type: ADME, organism-based; settings: in vivo
[22] = Apparent terminal half life in Sprague-Dawley rat at 0.5 mg/kg, iv administered as single dose by LC-MS/MS analysis; assay type: ADME, organism-based; settings: in vivo, read-out: betat1/2(app) (converted)
[23] = Cmax in Sprague-Dawley rat at 0.5 mg/kg, iv administered as single dose by LC-MS/MS analysis; assay type: ADME, organism-based; parameters: dose 0.5 mg/kg, route intravenous; settings: in vivo
[24] = Plasma concentration in Sprague-Dawley rat at 2 mg/kg, po administered as single dose measured after 30 mins by LC-MS/MS analysis; assay type: ADME, organism-based
[25] = Plasma concentration in Sprague-Dawley rat at 2 mg/kg, po administered as single dose measured after 4 hrs by LC-MS/MS analysis; assay type: ADME, organism-based
[26] = Plasma concentration in Sprague-Dawley rat at 2 mg/kg, po administered as single dose measured after 6 hrs by LC-MS/MS analysis; assay type: ADME, organism-based
[27] = Plasma concentration in Sprague-Dawley rat at 2 mg/kg, po administered as single dose measured after 9 hrs by LC-MS/MS analysis; assay type: ADME, organism-based
[28] = Plasma concentration in Sprague-Dawley rat at 0.5 mg/kg, iv administered as single dose measured after 5 mins by LC-MS/MS analysis; assay type: ADME, organism-based
[29] = Plasma concentration in Sprague-Dawley rat at 0.5 mg/kg, iv administered as single dose measured after 15 mins by LC-MS/MS analysis; assay type: ADME, organism-based
[30] = Plasma concentration in Sprague-Dawley rat at 0.5 mg/kg, iv administered as single dose measured after 30 mins by LC-MS/MS analysis; assay type: ADME, organism-based
[31] = Plasma concentration in Sprague-Dawley rat at 0.5 mg/kg, iv administered as single dose measured after 1 hr by LC-MS/MS analysis; assay type: ADME, organism-based
in vitro = settings: rat, liver microsomes
Description: Half life in rat liver microsomes at 1 uM in presence of NADPH by LC-MS/MS analysis

Sodium-dependent serotonin transporter, sequence (P31652 whole entry): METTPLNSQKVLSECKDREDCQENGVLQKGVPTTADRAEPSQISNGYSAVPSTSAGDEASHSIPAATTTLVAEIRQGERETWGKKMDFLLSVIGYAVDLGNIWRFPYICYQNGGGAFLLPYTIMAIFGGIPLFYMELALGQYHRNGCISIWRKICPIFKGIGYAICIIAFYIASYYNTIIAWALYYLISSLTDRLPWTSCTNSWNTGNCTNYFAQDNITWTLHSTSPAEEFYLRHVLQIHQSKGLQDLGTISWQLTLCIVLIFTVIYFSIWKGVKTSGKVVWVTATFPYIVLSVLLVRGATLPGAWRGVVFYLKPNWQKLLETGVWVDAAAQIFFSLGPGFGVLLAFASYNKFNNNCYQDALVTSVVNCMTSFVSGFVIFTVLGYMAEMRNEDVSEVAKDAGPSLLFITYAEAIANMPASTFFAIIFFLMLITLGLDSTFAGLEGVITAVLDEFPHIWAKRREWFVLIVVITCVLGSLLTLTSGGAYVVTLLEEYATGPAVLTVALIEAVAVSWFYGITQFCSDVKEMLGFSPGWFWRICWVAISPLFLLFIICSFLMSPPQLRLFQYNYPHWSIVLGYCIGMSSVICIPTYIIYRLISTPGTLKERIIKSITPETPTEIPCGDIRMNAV

Structure (SMILES): Fc1ccc(N2CCN(CCCc3c[nH]c4ccc(F)cc34)CC2)c(-c2ccccc2)c1
- IC50 [1]: 25 nM
- Ki [2]: 28 nM
- inhibition [3]: > 90%
- Ki [4]: 3.3 nM
- Activity (Mus musculus [5]): 54%
- Activity (Mus musculus [6]): 24%
- IC50 [7]: 16700 nM
- Activity (Mus musculus [8]): 39%
- Activity (Mus musculus [9]): 20%
- Activity (Mus musculus [10]): 18%
- Ratio Ki (Homo sapiens): 1
- AUC(0-t) [11]: 536 ng·h/mL
- AUC(0-inf) [12]: 898 ng·h/mL
- Vd/F [13]: 17.1 L/kg
- half-life [14]: 6.1 h
- Tmax [15]: 1.7 h
- bioavailability [16]: 68.5%
- AUC(0-t) [17]: 287 ng·h/mL
- AUC(0-inf) [18]: 328 ng·h/mL
- MRT last [19]: 1.9 h
- Vz/F (Rattus norvegicus [20]): 7.4 L/kg
- CLz/F (Rattus norvegicus [21]): 25 mL/min/kg
- half-life [22]: 3.3 h
- Cmax [23]: 342 ng/mL
- concentration at 0.5 h [24]: 58.3 ng/mL
- concentration at 4 h [25]: 60.7 ng/mL
- concentration at 6 h [26]: 64.7 ng/mL
- concentration at 9 h [27]: 34.9 ng/mL
- concentration at 5 min [28]: 342 ng/mL
- concentration at […] [29]: 149 ng/mL
- concentration at 0.5 h [30]: 80.8 ng/mL
- concentration at 1 h [31]: 51.3 ng/mL
- half-life at 1 µM (in vitro): 0.775 h

From ChEMBL document CHEMBL4251632, “Synthesis and antidepressant-like activity of novel aralkyl piperazine derivatives targeting SSRI/5-HT1A/5-HT7” (Eur J Med Chem, 2018)
